Data taken from paper PMC4154846, “Functional Characterization of Chemosensory Proteins in the Scarab Beetle, Holotrichia oblita Faldermann (Coleoptera: Scarabaeida)” (PLoS ONE, 2014).
Several values for one entry are separate records, joined by “and”; a condition that tells them apart may be missing. Equal entries are not always repeated. Entries after “also recorded” stand apart in the source; their conditions may differ. Where two headings read alike, the source gives them in different places.

Tests used:
[1] = target: T1, HoblCSP1 (Holotrichia oblita, UniProt G9BWI4); test: Fluorescence competition assay with 1-NPN, recombinant HoblCSP1; format: binding; conditions: for binding affinity to HoblCSP1, in words: competition assay
Method: (§1) Fluorescence binding assay was based on method previously described by Yin et al.. Briefly, fifty compounds (Sigma-Aldrich, Germany) with chemical purities ≥97% were tested in a Lengguang 970 CRT spectrofluorimeter (Shanghai Jingmi, China). […] Binding data for each ligand was collected from 3 measurements.
(§2) Figure 3 Fluorescence competition assay of the recombinant HoblCSP1 and HoblCSP2. (A) Binding curves of 1-NPN with HoblCSP1 and HoblCSP2 and their relative Scatchard plots. […] (B) Representative competitive binding curves of the recombinant HoblCSP1 to a series selected ligands (see Table 1). All proteins used were diluted to a fixed concentration of 2 µM, while the concentration of 1-NPN varied with the respective dissociation constant of HoblCSPs/1-NPN. […] Fluorescence intensities are plotted as percent of the initial fluorescence in the absence of ligands. The molecular formulas of representative ligands are shown here as well.

[2] = target: T2, HoblCSP2 (Holotrichia oblita, UniProt G9BWQ6); test: Fluorescence competition assay with 1-NPN, recombinant HoblCSP2; format: binding; conditions: for binding affinity to HoblCSP2, in words: competition assay
Method: as §1, §2

[3] = tested on: AgamCSP3; set-up: method as in PMID 23599217; conditions: cited from earlier work
[4] = tested on: H.oblita antennae; set-up: method as in PMID 21852709; conditions: cited from earlier work
[5] = target: T1, HoblCSP1; test: Fluorescence binding of 1-NPN to HoblCSP1 (binding curve, Scatchard plot); conditions: 2 µM protein; 1-NPN 2∼24 µM; read-out: dissociation constant of CSP1/1-NPN
Method: (§3) Fluorescence binding assay was based on method previously described by Yin et al.. Briefly, fifty compounds (Sigma-Aldrich, Germany) with chemical purities ≥97% were tested in a Lengguang 970 CRT spectrofluorimeter (Shanghai Jingmi, China). Assuming the proteins were 100% active, the binding affinities for N-phenyl-1-naphthylamine (1-NPN) were determined by adding aliquots of 1-NPN into a 2 µM protein solution for final concentrations of 2∼24 µM. The dissociation constants of the binding competitors were calculated from IC50 according to Campanacci et al: Ki = [IC50]/(1+[1-NPN]/K(1-NPN)), where [1-NPN] represents the concentration of unbound 1-NPN and K(1-NPN) is the dissociation constant of 1-NPN [46]. Binding data for each ligand was collected from 3 measurements.
(§4) Figure 3 Fluorescence competition assay of the recombinant HoblCSP1 and HoblCSP2. (A) Binding curves of 1-NPN with HoblCSP1 and HoblCSP2 and their relative Scatchard plots. The dissociation constant of HoblCSP1 is 2.53 µM and that of HoblCSP2 is 2.93 µM. (B) Representative competitive binding curves of the recombinant HoblCSP1 to a series selected ligands (see Table 1). […] Fluorescence intensities are plotted as percent of the initial fluorescence in the absence of ligands. […]

[6] = target: T2, HoblCSP2; test: Fluorescence binding of 1-NPN to HoblCSP2 (binding curve, Scatchard plot); conditions: 2 µM protein; 1-NPN 2∼24 µM; read-out: dissociation constant of CSP2/1-NPN
Method: as §3, §4

[7] = tested on: H.oblita; set-up: method as in earlier work; conditions: cited from earlier work
[8] = competition with 1-NPN, 2 µM protein, ligand 0–28 µM, Ki calculated from IC50, 3 measurements, read-out: HoblCSP1 Ki
[9] = competition with 1-NPN, 2 µM protein, ligand 0–28 µM, Ki calculated from IC50, 3 measurements, read-out: HoblCSP2 Ki

T2 sequence (G9BWQ6 entry or part of it): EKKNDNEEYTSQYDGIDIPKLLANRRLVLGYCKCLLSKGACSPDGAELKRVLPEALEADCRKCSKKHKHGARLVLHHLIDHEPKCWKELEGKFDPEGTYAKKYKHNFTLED
T1 sequence (G9BWI4 entry or part of it): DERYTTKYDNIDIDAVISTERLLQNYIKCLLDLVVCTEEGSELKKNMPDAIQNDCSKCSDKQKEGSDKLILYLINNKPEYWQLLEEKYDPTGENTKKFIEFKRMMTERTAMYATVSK

Ki [1, 8] | SMILES | binding affinity to HoblCSP1, in words [1] | binding affinity to HoblCSP2, in words [2] | Ki [1] | further results
25.4 µM | C=CC(=C)CCC=C(C)C [myrcene] | medium affinities | medium affinities | – | Ki [2, 9]: 29.5 µM
– | CC[C@H](C)[C@H](N)C(=O)OC [L-Isoleucine methyl este] | limited affinities | limited affinities | – | –
– | CCC/C=C/C=O [trans-2-hexenal] | medium affinities | medium affinities | 24.9 µM | Ki [2]: 25.7 µM
57 µM | COC(=O)[C@@H]1CCCN1 [L-Proline methyl ester] | limited affinities | limited affinities | – | –
– | CC/C=C\CCO [cis-3-hexen-1-ol] | – | higher affinities | – | Ki ([1]; read-out: HoblCSP1 Ki, competition with 1-NPN, 2 µM protein, ligand 0–28 µM, Ki calculated from IC50, 3 measurements): 46.9 µM; Ki ([2]; read-out: HoblCSP2 Ki, competition with 1-NPN, 2 µM protein, ligand 0–28 µM, Ki calculated from IC50, 3 measurements): 47.8 µM and 35.7 µM
43.5 µM | CCOC(=O)CN [Glycine ethyl ester] | limited affinities | limited affinities | – | Ki [2, 9]: 39.5 µM
– | COC(=O)c1ccccc1O [methyl salicylate] | higher affinities | – | 47.3 µM | –
– | CC(=O)/C=C/C1=C(C)CCCC1(C)C [β-ionone] | bound most strongly; also recorded: highest affinities; also recorded: best ligand | bound most strongly; also recorded: highest affinities | 4.3 µM | Ki [2]: 4.47 µM
28.4 µM | COc1ccccc1 [anisole] | – | – | – | Ki [2, 9]: 29.5 µM
– | CC1=C(/C=C/C(C)=C/C=C/C(C)=C/C=O)C(C)(C)CCC1 [retinal] | – | – | – | best ligands for AgamCSP3 [3]: best ligands
– | OCc1ccccc1 [benzyl alcohol] | – | – | 34.9 µM | Ki [2]: 54.8 µM
– | CC(=O)/C=C/C1C(C)=CCCC1(C)C (stereo not drawn) [α-ionone] | highest affinities | highest affinities | 10.5 µM | electrophysiological response in H.oblita antennae (EAG) [4]: strong electrophysiological responses; Ki [2]: 11.5 µM
– | c1ccc(Nc2cccc3ccccc23)cc1 [1-NPN, N-phenyl-1-naphthylamine] | – | – | – | Kd [5]: 2.53 µM; Kd [6]: 2.93 µM
57.6 µM | CCCCCCO [hexanol] | – | – | – | Ki [2, 9]: 60.5 µM
– | C=CCc1ccc(O)c(OC)c1 [eugenol] | higher affinities | – | 30 µM | –
– | CC(=O)CCC=C(C)C [6-Methyl-5-hepten-2-one] | – | higher affinities | – | Ki [2]: 56.9 µM
– | O=Cc1ccccc1 [benzaldehyde] | medium affinities | medium affinities | 23.3 µM | Ki [2]: 19.5 µM
48.1 µM | C=CC(O)CCCCC (centres unmarked) [1-Octen-3-ol] | – | – | – | –
29.9 µM | CCCCC(CC)CO (centres unmarked) [2-Ethy1-1-Hexanol] | – | – | – | Ki [2, 9]: 32.1 µM
– | CC(C)=CCC[C@@H](C)CC=O [citronellal] | – | – | – | best ligands for AgamCSP3 [3]: best ligands
34.6 µM | CC(C)(C)C1CCC(O)CC1 (centres unmarked) [4-tert-butylcyclohexanol] | – | – | – | Ki [2, 9]: 50.7 µM
– | CC(C)=CCC/C(C)=C/CO [geraniol] | medium affinities | medium affinities | 29.5 µM | Ki [2]: 30.2 µM
35.9 µM | CCCCCCCCO [1-octanol] | – | – | – | Ki [2, 9]: 40.6 µM
– | O=C/C=C/c1ccccc1 [cinnamaldehyde] | highest affinities | highest affinities | 20.5 µM | electrophysiological response in H.oblita antennae (EAG) [4]: strong electrophysiological responses; attraction to H.oblita [7]: great attraction; Ki [2]: 17.5 µM
– | CCCCCCCCC=O [nonanal] | – | – | – | best ligands for AgamCSP3 [3]: best ligands

SMILES | Ki [1, 8] | binding affinity to HoblCSP1, in words [1] | binding affinity to HoblCSP2, in words [2] | Ki [1] | further results
C=C1C2CCC(C2)C1(C)C (centres unmarked) [camphene] | 37.9 µM | able to bind camphene, albeit with a high Ki value | could not bind camphene at all | – | –
CC1=CC[C@@H](C(C)(C)O)CC1 [α -terpineol] | 46.8 µM | – | – | – | Ki [2, 9]: 39.4 µM
COC(=O)c1ccccc1C(=O)OC [dimererhyl phthalate] | 22.3 µM | higher affinities | – | – | –
